Results reported in patent US10143691B2, “Pathogenic control of apoptosis” (CSIR, priority 2014, dated 2018).
“Also recorded” adds a separate entry of the source.

System: lincRNAp21
Test: lincRNA-p21 expression by RNA FISH spot counts and quantitative RT-PCR
Assay type: cell-based, human
Conditions: uninfected Ghost(3) cells, drug-treated, smFISH spot count and qRT-PCR
Method: RNA FISH on Ghost(3) cells was performed according to Raj, 2008 and on primary macrophages according to Schaffer, 2013. For both methods 48 20mer probes (Biosearch) targeted to human lincRNAp21 were synthesised baring a […] C6dT. The amino group was subsequently conjugated to the following NHSester dyes: ATTO565, ATTO647N (ATTOTEC) or Alexa Fluor 647 (Invitrogen). Briefly, oligonucleotide probes were ethanol precipitated and resuspended in 0.1 M sodium tetraborate (Sigma). Approximately 0.3 mg of the NHSester dye (ATTOTEC) was dissolved in dimethyl sulphoxide (Sigma). The dye solution was added to the probe solution and incubated overnight in the dark at 37° C. Following the conjugation reaction, the probes were ethanol precipitated overnight, and resuspended in 0.1 M triethyl ammonium (Sigma). Conjugated probes were separated and purified to enrich for dyeconjugated probes by reverse phase HPLC on a C18 column. […]
For each experiment, Ghost(3) cells or IPSO-derived primary macrophages were infected or treated with 500 nM Doxorubicin over time and total RNA was extracted from cells using TRIzol® (Life Technologies), treated with RQ1 RNase-free DNase (Promega) and reverse transcribed using SuperScript III Reverse Transcriptase (Life Technologies). Quantitative RTPCR was performed using Sso Fast EvaGreen™ supermix (BioRad) on a BioRad CFX96 real-time PCR detection system. […]

How did the lincRNA-p21 expression turn out when `COc1cccc2c1C(=O)c1c(O)c3c(c(O)c1C2=O)C[C@@](O)(C(=O)CO)C[C@@H]3O[C@H]1C[C@H](N)[C@H](O)[C@H](C)O1` [Doxorubicin] was run?
The lincRNA-p21 expression was “enhanced; also recorded: significantly increases lincRNAp21 expression over time”.
